Values of other authors as cited in patent publication US20160361342A1, “USE OF ALGINATE OLIGOMERS IN THE TREATMENT OF CYSTIC FIBROSIS AND OTHER CONDITIONS ASSOCIATED WITH DEFECTIVE CFTR ION CHANNEL FUNCTION” (ALGIPHARAMA AS, priority 2014, published 2016).

Test system: ileum explants from mutant mice
Settings: apical medium supplemented with sodium bicarbonate at levels predicted to be reached by wild type CFTR

In the case of `O=C([O-])O.[Na+]` [sodium bicarbonate], the attached mucus phenotype is listed as “can be reversed”.
